Results published in PubChem BioAssay (NCI).
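Tested at 5 concentrations; 48 h exposure; 96-well plates; endpoints linearly interpolated, else capped at highest concentration. TGI is the concentration that stops growth completely.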

How the values were obtained:
Assay in all cases: NCI tumour cell line growth inhibition, 48 h
[1] = test system: RXF 393 renal
[2] = test system: OVCAR-8 ovarian
[3] = test system: SNB-19 CNS
[4] = test system: XF 498 CNS
[5] = test system: HOP-18 NSCLC
[6] = test system: HOP-62 NSCLC
[7] = test system: P388/ADR leukemia
[8] = test system: HCT-116 colon
[9] = test system: SN12K1 renal
[10] = test system: OVCAR-3 ovarian
[11] = test system: A549 NSCLC
[12] = test system: CCRF-CEM leukemia
[13] = test system: SW-620 colon
[14] = test system: UO-31 renal
[15] = test system: UACC-62 melanoma
[16] = test system: NCI-H23 lung
[17] = test system: NCI-H460 lung
[18] = test system: A498 renal
[19] = test system: MCF7 breast
[20] = test system: EKVX NSCLC
[21] = test system: HOP-92 NSCLC
[22] = test system: HL-60(TB) leukemia
[23] = test system: DLD-1 colon
[24] = test system: RPMI-8226 leukemia
[25] = test system: UACC-257 melanoma
[26] = test system: SNB-75 CNS
[27] = test system: CAKI-1 renal
[28] = test system: IGROV1 ovarian
[29] = test system: HCT-15 colon
[30] = test system: HT29 colon
[31] = test system: MOLT-4 leukemia
[32] = test system: SN12C renal
[33] = test system: LOX IMVI melanoma
[34] = test system: U251 CNS
[35] = test system: SF-539 CNS
[36] = test system: NCI-H522 lung
[37] = test system: HCC-2998 colon
[38] = test system: P388 leukemia
[39] = test system: SF-268 CNS
[40] = test system: OVCAR-5 ovarian
[41] = test system: NCI/ADR-RES ovarian
[42] = test system: MALME-3M melanoma
[43] = test system: SNB-78 CNS
[44] = test system: SK-MEL-5 melanoma
[45] = test system: DMS 273 small cell lung
[46] = test system: KM20L2 colon
[47] = test system: SF-295 CNS
[48] = test system: M19-MEL melanoma
[49] = test system: DMS 114 small cell lung
[50] = test system: COLO 205 colon
[51] = test system: SK-MEL-2 melanoma
[52] = test system: K-562 leukemia
[53] = test system: KM12 colon
[54] = test system: NCI-H226 lung
[55] = test system: SK-OV-3 ovarian
[56] = test system: SK-MEL-28 melanoma
[57] = test system: OVCAR-4 ovarian

O=C1NC(c2cccc3ccccc23)Nc2ccc(O)cc21 (centres undefined)
TGI [1]: 91.9 µM
TGI [2]: 111 µM
TGI [3]: 150 µM
TGI [4]: 59.2 µM
TGI [5]: 131 µM
TGI [6]: 121 µM
TGI [7]: 83.6 µM
TGI [8]: 122 µM
TGI [9]: 112 µM
TGI [10]: 58.5 µM
TGI [11]: > 139 µM
TGI [12]: 111 µM
TGI [13]: > 127 µM
TGI [14]: 78.5 µM
TGI [15]: 78.5 µM
TGI [16]: > 132 µM
TGI [17]: 69.5 µM
TGI [18]: 75.3 µM
TGI [19]: 102 µM
TGI [20]: 128 µM
TGI [21]: 98.9 µM
TGI [22]: 35 µM
TGI [23]: 134 µM
TGI [24]: 82.5 µM
TGI [25]: > 84.4 µM
TGI [26]: 106 µM
TGI [27]: > 144 µM
TGI [28]: 95.7 µM
TGI [29]: 78.3 µM
TGI [30]: 121 µM
TGI [31]: 75.5 µM
TGI [32]: 133 µM
TGI [33]: > 75.7 µM
TGI [34]: > 141 µM
TGI [35]: 91.6 µM
TGI [36]: 92.3 µM
TGI [37]: 88.5 µM
TGI [38]: 50.6 µM
TGI [39]: > 150 µM
TGI [40]: 101 µM
TGI [41]: 94.2 µM
TGI [42]: 69.5 µM
TGI [43]: > 150 µM
TGI [44]: 80.8 µM
TGI [45]: 64.5 µM
TGI [46]: 113 µM
TGI [47]: 104 µM
TGI [48]: 127 µM
TGI [49]: 67.1 µM
TGI [50]: 67.4 µM
TGI [51]: 57.3 µM
TGI [52]: > 94.6 µM
TGI [53]: 83.9 µM
TGI [54]: 60 µM
TGI [55]: 115 µM
TGI [56]: > 150 µM
TGI [57]: > 150 µM

C=C1CC(OC)(C(OC)C(=O)N(C)[C@H]2OCO[C@H]3C2O[C@H](C[C@@H](COC)OC)C(C)(C)C3OC)O[C@H](C)[C@@H]1C (some centres undefined)
TGI [1]: 24.8 µM
TGI [2]: > 91.7 µM
TGI [3]: 46.8 µM
TGI [4]: 40.1 µM
TGI [5]: 71.2 µM
TGI [6]: > 91.7 µM
TGI [7]: 38.8 µM
TGI [8]: 30.6 µM
TGI [9]: 38.6 µM
TGI [10]: 37.8 µM
TGI [11]: > 91.7 µM
TGI [12]: 37.7 µM
TGI [13]: > 91.7 µM
TGI [14]: 49.1 µM
TGI [15]: 33.1 µM
TGI [16]: 34.7 µM
TGI [17]: 64.5 µM
TGI [18]: 28.8 µM
TGI [19]: 28.8 µM
TGI [20]: 60.7 µM
TGI [22]: 39.6 µM
TGI [23]: 70.4 µM
TGI [24]: 53.2 µM
TGI [25]: 30.3 µM
TGI [26]: 24.7 µM
TGI [27]: 28.5 µM
TGI [28]: 32.5 µM
TGI [29]: 87.3 µM
TGI [30]: 29 µM
TGI [31]: 36 µM
TGI [32]: 86.6 µM
TGI [33]: 26.5 µM
TGI [34]: 54.4 µM
TGI [35]: 42.8 µM
TGI [36]: 29.9 µM
TGI [37]: 31.6 µM
TGI [38]: 18.2 µM
TGI [39]: 30.2 µM
TGI [40]: 69.2 µM
TGI [41]: 41.2 µM
TGI [43]: 43.5 µM
TGI [44]: > 9.17 µM
TGI [45]: 29 µM
TGI [46]: 36.8 µM
TGI [47]: 30 µM
TGI [49]: 34.9 µM
TGI [50]: 20.9 µM
TGI [52]: 40.9 µM
TGI [53]: 25.9 µM
TGI [54]: 23.9 µM
TGI [56]: 40.6 µM
TGI [57]: 22.2 µM
